Molecules are shown by their SMILES.

We go through 22 molecules from patent US12479827B2, “Heteroaromatic carboxamide derivatives as plasma kallikrein inhibitors” (Boehringer Ingelheim International GmbH, priority 2020, dated 2025).

The target in experiment [1] is T1, Human PKK (Homo sapiens, UniProt P03952).
T1 construct: purchased Enzyme Research Laboratories
The experiment in a line: Inhibition of PKK using an endpoint assay (human PKK). The class given is biochemical. The following applies: fluorogenic substrate H-Pro-Phe-Arg-AMC, 1 h room temperature, method names human or rat PKK, table does not say which. The essentials: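 Endpoint fluorescence (ex 355 nm, em 460 nm) after stopping with 1 μM final PPACK II. Buffer: Tris 100 mM pH 7.8, NaCl 150 mM, BSA 0.1%, Tween20 0.05%, with 1% DMSO present; enzyme is human plasma kallikrein.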

Experiment [2] deals with T2, PKK in kaolin activated human platelet poor plasma (Homo sapiens, UniProt P03952).
T2 construct: Platelet poor plasma (PPP) obtained from human wholeblood; from tissue
T2 sequence (P03952 391-638 limits assumed): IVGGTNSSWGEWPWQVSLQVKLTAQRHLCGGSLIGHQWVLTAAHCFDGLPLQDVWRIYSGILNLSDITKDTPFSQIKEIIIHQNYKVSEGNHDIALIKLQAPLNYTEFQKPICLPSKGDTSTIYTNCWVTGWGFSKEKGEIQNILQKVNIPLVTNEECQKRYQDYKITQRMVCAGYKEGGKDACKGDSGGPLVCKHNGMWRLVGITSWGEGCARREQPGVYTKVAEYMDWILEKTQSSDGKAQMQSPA
T2 sequence (P03952 20-390 limits assumed): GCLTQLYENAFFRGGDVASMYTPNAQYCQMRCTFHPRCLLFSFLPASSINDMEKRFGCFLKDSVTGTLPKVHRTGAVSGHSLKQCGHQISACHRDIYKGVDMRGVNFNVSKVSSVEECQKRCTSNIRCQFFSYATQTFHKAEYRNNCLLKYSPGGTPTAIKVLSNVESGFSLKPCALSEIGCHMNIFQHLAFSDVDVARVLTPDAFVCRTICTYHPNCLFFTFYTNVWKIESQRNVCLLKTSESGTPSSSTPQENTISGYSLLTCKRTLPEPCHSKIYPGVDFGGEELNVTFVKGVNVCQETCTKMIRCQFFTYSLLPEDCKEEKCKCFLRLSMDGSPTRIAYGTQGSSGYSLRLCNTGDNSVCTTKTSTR
The experiment in a line: Inhibition of PKK in kaolin activated human PPP.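 Note: readout is the rate of fluorogenic substrate cleavage in rfu per min.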 The class given is biochemical. Conditions: 25-750 μg/mL kaolin, global fit, text b200 calls the values IC90. As to the method: Platelet poor plasma (PPP) obtained from human wholeblood, anticoagulated with Na-Citrate, is incubated with various concentrations of the test compound together with either 25, 75, 250, or 750 μg/mL kaolin in assay buffer for 20 min at 37° C. such that for each kaolin dose used a concentration response is obtained for the test compound.

T1 sequence (P03952 20-390 limits assumed): as above
T1 sequence (P03952 391-638 limits assumed): as the sequence (P03952 391-638 limits assumed) above

The IC50 is the point on the concentration scale where inhibition reaches its midpoint. As for `Cn1cnc2c1CC[C@H]2NC(=O)c1cnn(Cc2ccc(N3CC4(CC4)C3)nc2Br)c1` [Example 13, 1-[(6-{5-Azaspiro[2.3]hexan-5-yl}-2-bromopyridin-3-yl)methyl]-N-[(4R)-1-methyl-1H,4H,5H,6H-cyclopenta[d]imidazol-4-yl]-1H-pyrazole-4-carboxamide], the half-maximal inhibitory concentration (IC50) in experiment [1] is 0.0011 µM; in experiment [2], 0.451 µM.
The matching figures for `CCc1nc(N2CC3C(C2)C3(F)F)ccc1Cc1cc(C(=O)N[C@@H]2CCc3c2ncn3C)n(CC)n1` (stereo partly drawn) [Example 161, 3-[(6-{6,6-Difluoro-3-azabicyclo[3.1.0]hexan-3-yl}-2-ethylpyridin-3-yl)methyl]-1-ethyl-N-[(4R)-1-methyl-1H,4H,5H,6H-cyclopenta[d]imidazol-4-yl]-1H-pyrazole-5-carboxamide]: 0.0015 µM and 0.431 µM.
The matching figures for `Cc1cc(N2CC3C(C2)C3(F)F)ccc1Cn1cc(C(=O)N[C@@H]2CCc3c2ncn3C)cn1` (stereo partly drawn) [Example 199, 1-[(4-{6,6-difluoro-3-azabicyclo[3.1.0]hexan-3-yl}-2-methylphenyl)methyl]-N-[(4R)-1-methyl-1H,4H,5H,6H-cyclopenta[d]imidazol-4-yl]-1H-pyrazole-4-carboxamide]: 0.0031 µM and 0.808 µM.
Regarding `Cc1nc(N2CC3C(C2)C3(F)F)ccc1Cc1ccc(C(=O)N[C@@H]2CCc3c2ncn3C)s1` (stereo partly drawn) [Example 187, 5-[(6-{6,6-Difluoro-3-azabicyclo[3.1.0]hexan-3-yl}-2-methylpyridin-3-yl)methyl]-N-[(4R)-1-methyl-1H,4H,5H,6H-cyclopenta[d]imidazol-4-yl]thiophene-2-carboxamide], the half-inhibitory concentration (IC50) in experiment [1] was found to be 0.0122 µM; in experiment [2], 2.45 µM.
`Cn1cnc2c1CC[C@H]2NC(=O)c1cnn(Cc2ccc(N3CC4CC4C3)nc2C2(C#N)CC2)c1` (stereo partly drawn) [Example 42, 1-[(6-{3-Azabicyclo[3.1.0]hexan-3-yl}-2-(1-cyanocyclopro-pyl)-pyridin-3-yl)methyl]-N-[(4R)-1-methyl-1H,4H,5H,6H-cyclopenta[d]imidazol-4-yl]-1H-pyrazole-4-carboxamide]: the IC50 in experiment [1] was 0.0006 µM; in experiment [2] it was 0.195 µM.
The matching figures for `CC(O)c1nc(N2CC3CC3C2)ccc1Cn1cc(C(=O)N[C@@H]2CCc3c2ncn3C)cn1` (stereo partly drawn) [Example 88, 1-[(6-{3-Azabicyclo[3.1.0]hexan-3-yl}-2-(1-hydroxyethyl)-pyridin-3-yl)methyl]-N-[(4R)-1-methyl-1H,4H,5H,6H-cyclopenta[d]imidazol-4-yl]-1H-pyrazole-4-carboxamide]: 0.0009 µM and 0.139 µM.
In the case of `Cn1cnc2c1CC[C@H]2NC(=O)c1cn(Cc2ccc(N3CC4(CC4)C3)nc2F)cn1` [Example 11, 1-[(6-{5-Azaspiro[2.3]hexan-5-yl}-2-fluoropyridin-3-yl)methyl]-N-[(4R)-1-methyl-1H,4H,5H,6H-cyclopenta[d]imidazol-4-yl]-1H-imidazole-4-carboxamide], the figures for the 50% inhibitory concentration (IC50) in experiment [1] and in experiment [2] were 0.0021 µM and 0.3 µM, respectively.
In the same order, the values of `Cn1cnc2c1CC[C@H]2NC(=O)c1cnn(Cc2ncc(N3CC4CC4C3)cn2)c1` (stereo partly drawn) [Example 71, 1-[(5-{3-Azabicyclo[3.1.0]hexan-3-yl}pyrimidin-2-yl)methyl]-N-[(4R)-1-methyl-1H,4H,5H,6H-cyclopenta[d]imidazol-4-yl]-1H-pyrazole-4-carboxamide] are 0.151 µM and 9.31 µM.
As to `Cn1cnc2c1CC[C@H]2NC(=O)c1c[nH]c(Cc2ccc(N3CC4C(C3)C4(F)F)nc2Cl)c1` (stereo partly drawn) [Example 159, 5-[(2-Chloro-6-{6,6-difluoro-3-azabicyclo-[3.1.0]hexan-3-yl}pyridin-3-yl)methyl]-N-[(4R)-1-methyl-1H,4H,5H,6H-cyclopenta[d]imidazol-4-yl]-1H-pyrrole-3-carboxamide], the values for the half-maximal inhibitory concentration (IC50) in experiment [1] and in experiment [2] were 0.0035 µM and 1.14 µM, respectively.
The matching figures for `Cn1cnc2c1CC[C@H]2NC(=O)c1cnn(Cc2ccc(N3CC4C(C3)C4(F)F)nc2F)c1` (stereo partly drawn) [Example 18, 1-[(6-{6,6-Difluoro-3-azabicyclo[3.1.0]hexan-3-yl}-2-fluoropyridin-3-yl)methyl]-N-[(4R)-1-methyl-1H,4H,5H,6H-cyclopenta[d]imidazol-4-yl]-1H-pyrazole-4-carboxamide]: 0.0021 µM and 0.46 µM.
`Cc1cc(N2CC3CC3C2)ncc1Cn1cnc(C(=O)N[C@@H]2CCc3c2ncn3C)c1` (stereo partly drawn) [Example 106, 1-[(6-{3-Azabicyclo[3.1.0]hexan-3-yl}-4-methylpyridin-3-yl)methyl]-N-[(4R)-1-methyl-1H,4H,5H,6H-cyclopenta[d]imidazol-4-yl]-1H-imidazole-4-carboxamide]: the 50% inhibitory concentration (IC50) in experiment [1] turned out to be 0.0098 µM; in experiment [2], 1.97 µM.
The matching figures for `Cn1cnc2c1CC[C@H]2NC(=O)c1cn(Cc2ccc(N3CC4CC4C3)nc2F)nn1` (stereo partly drawn) [Example 17, 1-[(6-{3-Azabicyclo[3.1.0]hexan-3-yl}-2-fluoropyridin-3-yl)methyl]-N-[(4R)-1-methyl-1H,4H,5H,6H-cyclo-penta[d]imidazol-4-yl]-1H-1,2,3-triazole-4-carboxamide]: 0.002 µM and 0.818 µM.
In the same order, the values of `Cn1cnc2c1CC[C@H]2NC(=O)c1cnn(Cc2ccc(N3CC4C(C3)C4(F)F)nc2CO)c1` (stereo partly drawn) [Example 93, 1-[(6-{6,6-Difluoro-3-azabicyclo[3.1.0]hexan-3-yl}-2-(hydroxymethyl)pyridin-3-yl)methyl]-N-[(4R)-1-methyl-1H,4H,5H,6H-cyclopenta-[d]imidazol-4-yl]-1H-pyrazole-4-carboxamide] are 0.0014 µM and 0.11 µM.
In the same order, the values of `Cn1cnc2c1CC[C@H]2NC(=O)c1cn(Cc2ccc(N3CC4CC4C3)nc2CO)cn1` (stereo partly drawn) [Example 98, 1-[(6-{3-Azabicyclo[3.1.0]hexan-3-yl}-2-(hydroxymethyl)pyridin-3-yl)methyl]-N-[(4R)-1-methyl-1H,4H,5H,6H-cyclopenta[d]imidazol-4-yl]-1H-imidazole-4-carboxamide] are 0.0015 µM and 0.282 µM.
Regarding `CCc1nc(N2CC3CC3C2)ccc1Cc1cc(C(=O)N[C@@H]2CCc3c2ncn3C)[nH]n1` (stereo partly drawn) [Example 165, 3-[(6-{3-Azabicyclo[3.1.0]hexan-3-yl}-2-ethylpyridin-3-yl)methyl]-N-[(4R)-1-methyl-1H,4H,5H,6H-cyclopenta[d]imidazol-4-yl]-1H-pyrazole-5-carboxamide], the IC50 in experiment [1] is 0.0008 µM; in experiment [2], 0.342 µM.
Regarding `Cn1cnc2c1CC[C@H]2NC(=O)c1cnn(Cc2ccc(N3CC4CC4C3)c(C#N)c2Cl)c1` (stereo partly drawn) [Example 202, 1-[(4-{3-azabicyclo[3.1.0]hexan-3-yl}-2-chloro-3-cyanophenyl)methyl]-N-[(4R)-1-methyl-1H,4H,5H,6H-cyclopenta[d]imidazol-4-yl]-1H-pyrazole-4-carboxamide], the results for the IC50 in experiment [1] and in experiment [2] were 0.0005 µM and 0.157 µM, respectively.
For `Cc1cc(N2CC3C(C2)C3(F)F)nc(C)c1Cn1cnc(C(=O)N[C@@H]2CCc3c2ncn3C)c1` (stereo partly drawn) [Example 111, 1-[(6-{6,6-Difluoro-3-azabicyclo[3.1.0]hexan-3-yl}-2,4-dimethylpyridin-3-yl)methyl]-N-[(4R)-1-methyl-1H,4H,5H,6H-cyclopenta[d]imidazol-4-yl]-1H-imidazole-4-carboxamide], the IC50 in experiment [1] is 0.0086 µM; in experiment [2], 4.15 µM.
As to `Cn1cnc2c1CC[C@H]2NC(=O)c1cn(Cc2ccc(N3CC4C(C3)C4(F)F)nc2F)nn1` (stereo partly drawn) [Example 25, 1-[(6-{6,6-Difluoro-3-azabicyclo[3.1.0]hexan-3-yl}-2-fluoropyridin-3-yl)methyl]-N-[(4R)-1-methyl-1H,4H,5H,6H-cyclopenta[d]imidazol-4-yl]-1H-1,2,3-triazole-4-carboxamide], the IC50 in experiment [1] worked out at 0.002 µM; in experiment [2] it was 0.286 µM.
For `Cn1cnc2c1CC[C@H]2NC(=O)c1ccn(Cc2ccc(N3CC4C(C3)C4(F)F)nc2)c1` (stereo partly drawn) [Example 140, 1-[(6-{6,6-Difluoro-3-azabicyclo[3.1.0]hexan-3-yl}pyridin-3-yl)methyl]-N-[(4R)-1-methyl-1H,4H,5H,6H-cyclopenta[d]imidazol-4-yl]-1H-pyrrole-3-carboxamide], the IC50 in experiment [1] is 0.0058 µM; in experiment [2] it was 0.76 µM.
Consider `Cc1nc(N2CC3C(C2)C3(F)F)ccc1Cc1cc(C(=O)N[C@@H]2CCc3c2ncn3C)n(C)n1` (stereo partly drawn) [Example 167, 3-[(6-{6,6-Difluoro-3-azabicyclo[3.1.0]hexan-3-yl}-2-methylpyridin-3-yl)methyl]-1-methyl-N-[(4R)-1-methyl-1H,4H,5H,6H-cyclopenta-[d]imidazol-4-yl]-1H-pyrazole-5-carboxamide], for which the results for the IC50 in experiment [1] and in experiment [2] were 0.0013 µM and 0.272 µM, respectively.
Regarding `CCc1nc(N2CC3CC3C2)ccc1Cc1cc(C(=O)N[C@@H]2CCc3c2ncn3C)n(CC)n1` (stereo partly drawn) [Example 162, 3-[(6-{3-Azabicyclo[3.1.0]hexan-3-yl}-2-ethylpyridin-3-yl)methyl]-1-ethyl-N-[(4R)-1-methyl-1H,4H,5H,6H-cyclopenta[d]imidazol-4-yl]-1H-pyrazole-5-carboxamide], the IC50 in experiment [1] amounted to 0.0011 µM; in experiment [2] it was 0.231 µM.
As to `Cn1cnc2c1CC[C@H]2NC(=O)c1cn(Cc2ccc(N3CC4CC4C3)nc2)cn1` (stereo partly drawn) [Example 72, 1-[(6-{3-Azabicyclo[3.1.0]hexan-3-yl}pyridin-3-yl)methyl]-N-[(4R)-1-methyl-1H,4H,5H,6H-cyclopenta[d]imidazol-4-yl]-1H-imidazole-4-carboxamide], the values for the 50% inhibitory concentration (IC50) in experiment [1] and in experiment [2] were 0.0033 µM and 0.831 µM, respectively.
